Measured values reported in US10136663B2, “Curcuminoid-based compound/stevioside-containing complex for the prevention and treatment of an influenza virus infection” (priority 2011, dated 2018).
Read-outs that look alike come from different tables or passages of the source.

Legend:
[1] = Curcumin content of curcumin/stevioside complex solution; format: physicochemical; conditions: in 100 g/L of the stevioside solution, after ultrasonication at 70° C. and oven reaction
[2] = system: influenza virus type A (H9N2); set-up: species or system chicken; conditions: in vivo, po
[3] = system: influenza virus H9N2 (A/Chicken/Korea/MS96/96); conditions: dog
[4] = system: influenza virus H9N2 (A/Chicken/Korea/MS96/96); conditions: dog; remark: listed apart in the source

COc1cc(/C=C/C(=O)/C=C(O)/C=C/c2ccc(O)c(OC)c2)ccc1O [Curcumin, curcumin]
maximum curcumin in the resulting solution [1]: 3.5 g/L

C=C1C[C@@]23CC[C@H]4[C@@](C)(CCC[C@@]4(C)C(=O)O[C@@H]4O[C@H](CO)[C@@H](O)[C@H](O)[C@H]4O)[C@@H]2CC[C@]1(O[C@@H]1O[C@H](CO)[C@@H](O)[C@H](O)[C@H]1O[C@@H]1O[C@H](CO)[C@@H](O)[C@H](O)[C@H]1O)C3 [G4, stevioside]
Mean virus titer, Cecal Tonsil [2]: 5.30 ± 3.5 log10EID50/g
Mean virus titer, Trachea [2]: 5.80 ± 1.3 log10EID50/g
Virus re-isolation, Cecal Tonsil (number of virus-positive chicken/number of inoculated chickens) [2]: 8/10
Virus re-isolation, Trachea (number of virus-positive chicken/number of inoculated chickens) [2]: 10/10

CCOC(=O)C1=C[C@@H](OC(CC)CC)[C@H](NC(C)=O)[C@@H](N)C1 [Tamiflu, reference compound]
SI, selective index, CC50/EC50 [3]: >200
SI, selective index, CC50/EC50 [4]: >200
